In ChEMBL document CHEMBL1201862, “PubChem BioAssay data set” (2004):
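Cultured in 96-well plates, cells were exposed to test compound for 48 hours across five concentrations. GI50 = concentration required for 50% inhibition of growth.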 Activity calls are given as the source filed them. No stated cut-off is given here; in the data, active = GI50 up to about 1.1 µM and inactive = higher.

Assays:
Test in all cases: NCI anticancer screen, dose series, 48 h
[1] = test system: NCI/ADR-RES
[2] = test system: SF-268
[3] = test system: SF-539
[4] = test system: MDA-N
[5] = test system: NCI-H460
[6] = test system: SNB-75
[7] = test system: IGROV-1
[8] = test system: HCT-116
[9] = test system: HCC 2998
[10] = test system: OVCAR-3
[11] = test system: OVCAR-5
[12] = test system: A549
[13] = test system: SK-MEL-5
[14] = test system: UACC-62
[15] = test system: M14
[16] = test system: 786-0
[17] = test system: ACHN
[18] = test system: HT-29
[19] = test system: LOX IMVI
[20] = test system: SR

| SMILES | GI50 [1] | GI50 [2] | GI50 [3] | GI50 [4] | GI50 [5] | GI50 [6] | GI50 [7] | GI50 [8] | GI50 [9] | GI50 [10] | GI50 [11] | GI50 [12] | GI50 [13] | GI50 [14] | GI50 [15] | GI50 [16] | GI50 [17] | GI50 [18] | GI50 [19] | GI50 [20] |
| --- | --- | --- | --- | --- | --- | --- | --- | --- | --- | --- | --- | --- | --- | --- | --- | --- | --- | --- | --- | --- |
| CC(C)(C)OC(=O)NCCCCC(N)NC(=O)c1ccccc1 (configuration not stated) | > 100 µM (inactive) | > 100 µM (inactive) | > 100 µM (inactive) | > 100 µM (inactive) | > 100 µM (inactive) | > 100 µM (inactive) | > 100 µM (inactive) | > 100 µM (inactive) | > 100 µM (inactive) | > 100 µM (inactive) | > 100 µM (inactive) | > 100 µM (inactive) | > 100 µM (inactive) | > 100 µM (inactive) | > 100 µM (inactive) | > 100 µM (inactive) | > 100 µM (inactive) | > 100 µM (inactive) | > 100 µM (inactive) |  |
| O=C(/N=N/c1ccccc1Cl)NNc1ccccc1Cl |  | 60.5 µM (inactive) |  | 36.5 µM (inactive) | 65 µM (inactive) | > 100 µM (inactive) | 20.4 µM (inactive) | 20.5 µM (inactive) | 27.1 µM (inactive) | 35 µM (inactive) | 43.2 µM (inactive) | 55.5 µM (inactive) | 85.3 µM (inactive) | 43.4 µM (inactive) | 56.8 µM (inactive) | 18.5 µM (inactive) | 28.1 µM (inactive) | 93.8 µM (inactive) | 23.4 µM (inactive) | 27.5 µM (inactive) |
| CCOP(=O)(OCC)C(F)(F)c1ccc(CC(NC(=O)OC(C)(C)C)C(=O)O)cc1 (configuration not stated) | > 10 µM (inactive) | > 10 µM (inactive) | > 10 µM (inactive) | > 10 µM (inactive) | > 10 µM (inactive) | > 10 µM (inactive) | > 10 µM (inactive) | > 10 µM (inactive) | > 10 µM (inactive) | > 10 µM (inactive) | > 10 µM (inactive) | > 10 µM (inactive) | > 10 µM (inactive) | > 10 µM (inactive) | > 10 µM (inactive) | > 10 µM (inactive) | > 10 µM (inactive) | > 10 µM (inactive) | > 10 µM (inactive) |  |
| COc1ccc2c(c1)CCN1CCc3cc(OC)c(OC)cc3CC21 (configuration not stated) | > 100 µM (inactive) | 28.9 µM (inactive) | 76.4 µM (inactive) |  |  | 66.7 µM (inactive) | > 10 µM (inactive) | 41.9 µM (inactive) | 38.3 µM (inactive) |  | > 100 µM (inactive) | > 100 µM (inactive) |  | 32.6 µM (inactive) | 58.5 µM (inactive) | > 100 µM (inactive) | > 100 µM (inactive) | 35 µM (inactive) | 33 µM (inactive) | 39.8 µM (inactive) |
| OCSc1nn(CO)c(=S)s1 | 21.1 µM (inactive) | 21.6 µM (inactive) | 23.4 µM (inactive) |  | 23.8 µM (inactive) | 24.4 µM (inactive) | 17.7 µM (inactive) | 24.2 µM (inactive) | 22.1 µM (inactive) | 24 µM (inactive) | 48.1 µM (inactive) | 33.2 µM (inactive) | 31.8 µM (inactive) | 17.5 µM (inactive) | 20.1 µM (inactive) | 23.1 µM (inactive) | 25.1 µM (inactive) | 28.1 µM (inactive) | 18 µM (inactive) | 0.0643 µM (active) |
| CCc1ccc(CCN2CCCCC2)nc1 | > 100 µM (inactive) | > 100 µM (inactive) |  | > 100 µM (inactive) | > 100 µM (inactive) |  | 58.9 µM (inactive) | > 100 µM (inactive) | > 100 µM (inactive) | 92.3 µM (inactive) | > 100 µM (inactive) | > 100 µM (inactive) | > 100 µM (inactive) | > 100 µM (inactive) | > 100 µM (inactive) | > 100 µM (inactive) | > 100 µM (inactive) | > 100 µM (inactive) | > 100 µM (inactive) |  |
| Nc1ccc(C2SCC(=O)N2NS(=O)(=O)c2cccc(C(=O)O)c2)cc1 (configuration not stated) |  | > 100 µM (inactive) | > 100 µM (inactive) | > 100 µM (inactive) | > 100 µM (inactive) | > 100 µM (inactive) | > 100 µM (inactive) | > 100 µM (inactive) | > 100 µM (inactive) | > 100 µM (inactive) | > 100 µM (inactive) | > 100 µM (inactive) | > 100 µM (inactive) | > 100 µM (inactive) | > 100 µM (inactive) | > 100 µM (inactive) | > 100 µM (inactive) | > 100 µM (inactive) | > 100 µM (inactive) | 12.1 µM (inactive) |
